According to patent publication US10828289B2, “Hair follicle stem cell activation and hair growth” (THE REGENTS OF THE UNIVERSITY OF CALIFORNIA, priority 2016, dated 2020):
“Also recorded” adds a separate entry of the source.

Columns and labels:
Type in all cases: in vivo, mouse
c-Myc = experiment: Immunoblotting of total protein preps from topically treated skin: c-Myc; conditions: 2 topical doses of 50 uM (48 hours), vs vehicle control
Description: (§1) Mice. Animals were acquired from Jackson Labs (K15-CrePR, Lgr5-CreER and Lgr6-CreER), Rutter Lab (Mpc^fl/fl) and Seth Lab (Ldha^fl/fl) and maintained under conditions set forth by IUCUC and ARC. For experiments that include analysis of the telogen stage of the hair cycle, animals were harvested at post-natal day 50, for telogen-anagen transition animals were harvested at day 70, and for anagen animals were harvested at post-natal day 90. For experiments that include analysis of transgenic animals, K15-CrePR animals were shaved and treated by intraperitoneal injections of mifepristone and Lgr5-CreER and Lgr6-CreER animals were shaved and treated with tamoxifen (10 mg/ml dissolved in sunflower seed oil, 2 mg per day for 3 days) during telogen (post-natal day 50), and monitored for hair regrowth following shaving. For FIGS. 6A-6G, wildtype C57BL/6J animals were shaved at post-natal day 50 and treated topically with Transderma Plo Gel Ultramax Base (TR220) (vehicle) or RCGD423 (50 uM) for indicated periods of time. Both male and female animals were used in this study in approximately equal numbers with no apparent difference in phenotype between genders. […]
(§2) Histology, Immunostaining and Immunoblotting. […] Images were collected on an Olympus BX43 Upright Microscope and Zeiss Model Axio Imager M1 Upright Fluorescence Microscope. […]

n-Myc = experiment: Immunoblotting of total protein preps from topically treated skin: n-Myc; conditions: 2 topical doses of 50 uM (48 hours), vs vehicle control
Description: as §1, §2

Ldha = experiment: Immunoblotting of total protein preps from topically treated skin: Ldha; conditions: 2 topical doses of 50 uM (48 hours), vs vehicle control
Description: as §1, §2

Ldh [1] = experiment: Plate-reader Ldh activity assay on lysates from total epidermis after topical treatment; conditions: vs vehicle
Description: as §1, with “shaving.” for “shaving. For FIGS. 6A-6G, wildtype C57BL/6J animals were shaved at post-natal day 50 and treated topically with Transderma Plo Gel Ultramax Base (TR220) (vehicle) or RCGD423 (50 uM) for indicated periods of time. Both male and female animals were used in this study in approximately equal numbers with no apparent difference in phenotype between genders.”
Plate-reader Ldh assay. Ldh activity was determined in cell lysates by measuring the formation of soluble XTT formazan in direct relation to production of NADH over time at 475 nm at 37° C. using a Synergy-MX plate reader (Biotek Instruments). […] Protein content was determined using the BCA Protein Assay Kit (Thermo Scientific Pierce). […] Ldh activity was determined in cell lysates by measuring the change in absorbance of their common substrate or product, NADH, over time at 340 nm at 25° C. using a Synergy-MX plate reader (Biotek Instruments).

Ldh [2] = experiment: In situ Ldh activity staining of skin sections after topical treatment; conditions: epidermis and dermis
Description: as §1, with “genders. All phenotypes described are representative of a minimum of n=3 littermate pairs as indicated in the description of each experiment.” for “genders.”

lactate = experiment: LC-MS-based metabolomics of lactate after topical treatment; conditions: 48 hours, vs vehicle
Description: as §1, with “time.” for “time. Both male and female animals were used in this study in approximately equal numbers with no apparent difference in phenotype between genders.”
Mass spectrometry-based metabolomics analysis. […] The samples were analyzed with an UltiMate 3000RSLC (Thermo Scientific) coupled to a Q Exactive mass spectrometer (Thermo Scientific). […] Metabolites were quantified with TraceFinder 3.3 using accurate mass measurements (<3 ppm) and retention times.

Stat-3 = experiment: Immunostaining with phospho-Stat3 antibody in HFSCs after topical treatment
Description: as §1, §2

HFSCs = experiment: Immunohistochemistry for Ki-67 in HFSCs after topical treatment; conditions: same tissue
Description: as §1, §2

pStat1 = experiment: IHC for pStat1 in topically treated skin; conditions: topical, shaved mice day 50, skin harvested 48 hours after treatment
Description: (§3) FIG. 5. Stimulation of Jak-Stat signaling and the hair cycle. RCGD423 was applied topically to shaved mice at day 50. 48 hours after treatment, the skin was harvested and prepared for IHC. […] Scale bars indicate 20 micrometers.
as §1, with “shaving.” for “shaving. For FIGS. 6A-6G, wildtype C57BL/6J animals were shaved at post-natal day 50 and treated topically with Transderma Plo Gel Ultramax Base (TR220) (vehicle) or RCGD423 (50 uM) for indicated periods of time. Both male and female animals were used in this study in approximately equal numbers with no apparent difference in phenotype between genders.”
as §2

pStat5 = experiment: IHC for pStat5 in topically treated skin; conditions: topical, shaved mice day 50, skin harvested 48 hours after treatment
Description: as §3
as §1, with “shaving.” for “shaving. For FIGS. 6A-6G, wildtype C57BL/6J animals were shaved at post-natal day 50 and treated topically with Transderma Plo Gel Ultramax Base (TR220) (vehicle) or RCGD423 (50 uM) for indicated periods of time. Both male and female animals were used in this study in approximately equal numbers with no apparent difference in phenotype between genders.”
as §2

hair cycle = experiment: Topical treatment of shaved animals in telogen (day 50), hair cycle observation
Description: Mice. Animals were acquired from Jackson Labs (K15-CrePR, Lgr5-CreER and Lgr6-CreER), Rutter Lab (Mpc^fl/fl) and Seth Lab (Ldha^fl/fl) and maintained under conditions set forth by IUCUC and ARC. For experiments that include analysis of the telogen stage of the hair cycle, animals were harvested at post-natal day 50, for telogen-anagen transition animals were harvested at day 70, and for anagen animals were harvested at post-natal day 90. For experiments that include analysis of transgenic animals, K15-CrePR animals were shaved and treated by intraperitoneal injections of mifepristone and Lgr5-CreER and Lgr6-CreER animals were shaved and treated with tamoxifen (10 mg/ml dissolved in sunflower seed oil, 2 mg per day for 3 days) during telogen (post-natal day 50), and monitored for hair regrowth following shaving. For FIGS. 6A-6G, wildtype C57BL/6J animals were shaved at post-natal day 50 and treated topically with Transderma Plo Gel Ultramax Base (TR220) (vehicle) or RCGD423 (50 uM) for indicated periods of time. Both male and female animals were used in this study in approximately equal numbers with no apparent difference in phenotype between genders. All phenotypes described are representative of a minimum of n=3 littermate pairs as indicated in the description of each experiment. No statistical measure was used to determine the sample size beforehand, nor were statistics used to measure effects, as the results were essentially positive or negative as represented in the figures. The results described include data from all treated animals. The investigators were not blinded to allocation during the experimental data collection, nor were the experiments randomized. The results shown were representative images from at least three independently treated animals, and genotyping was performed both before and after animal treatment for confirmation.

[3] = topical treatment of animals in telogen (day 50)

## Brc1ccc(Nc2nc(-c3ccccc3)cs2)cc1 [RCGD423]
c-Myc
  c-Myc protein levels: increased; also recorded: induced
n-Myc
  n-Myc protein levels: increased; also recorded: induced
Ldha
  Ldha protein levels: increased; also recorded: induced
Ldh [1]
  Ldh activity, in vitro measurement on lysates from total epidermis: increase in activity
Ldh [2]
  Ldh activity, in situ staining: strong induction
lactate
  lactate level: large increase
Stat-3
  Stat-3 activation (phospho-Stat3 immunostaining): activated
HFSCs
  Ki-67 in HFSCs: induction
pStat1
  effect on pStat1: does not dramatically affect
pStat5
  effect on pStat5: does not dramatically affect
Hair cycle; [3]
  hair cycle: robust acceleration of the hair cycle
  interfollicular epidermis proliferation: minor hyperproliferation of the interfollicular epidermis
Hair cycle; topical, 50 uM, after 5 doses
  observed phenotype (entry into anagen): pigmentation and hair growth, indicative of entry into anagen
